Test results: paper PMC9878661, “Syntheses, Structural Characterization, and Cytotoxicity Assessment of Novel Mn(II) and Zn(II) Complexes of Aroyl-Hydrazone Schiff Base Ligand” (ACS Omega, 2023)

Biological target: T1, bovine serum albumin (BSA) (Bos taurus, UniProt P02769)
T1 construct: gene ALB
Test: UV-vis absorption titration of BSA at […] nm (double reciprocal plot)
Assay type: binding
Details: read-out: UV-vis absorption titration of BSA at 280 nm (double reciprocal plot) (converted)

T1 sequence (P02769 25-607): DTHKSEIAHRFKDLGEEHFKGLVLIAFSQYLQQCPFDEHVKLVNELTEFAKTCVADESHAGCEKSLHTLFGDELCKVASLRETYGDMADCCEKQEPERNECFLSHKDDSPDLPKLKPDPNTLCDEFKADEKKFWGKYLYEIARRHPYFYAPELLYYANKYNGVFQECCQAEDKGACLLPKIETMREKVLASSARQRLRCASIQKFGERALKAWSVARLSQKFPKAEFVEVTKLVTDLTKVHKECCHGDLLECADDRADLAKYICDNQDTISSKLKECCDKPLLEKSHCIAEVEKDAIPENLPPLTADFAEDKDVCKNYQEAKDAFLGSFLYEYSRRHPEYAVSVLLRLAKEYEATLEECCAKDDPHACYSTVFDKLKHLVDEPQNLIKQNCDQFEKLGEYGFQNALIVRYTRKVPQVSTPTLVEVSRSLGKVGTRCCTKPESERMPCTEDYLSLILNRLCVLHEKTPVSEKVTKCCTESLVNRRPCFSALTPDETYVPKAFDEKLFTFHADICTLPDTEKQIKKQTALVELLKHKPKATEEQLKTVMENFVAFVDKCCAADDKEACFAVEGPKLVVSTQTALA

## O=C(NN=Cc1c[nH]c2ccccc12)c1ccncc1 [L1, N′-[(E)-3-Indol-3-ylmethylene] isonicotinohydrazide]
  Kd: 261 µM
